Laboratory results taken from ChEMBL document CHEMBL1201862, “PubChem BioAssay data set” (2004).
The source made the active and inactive calls.

Legend:
[1] = molecular target: T1, Corticotropin-releasing factor receptor 2/Corticotropin-releasing factor-binding protein (Homo sapiens, UniProt P24387+Q13324); assay: Dose Response confirmation of uHTS hits for small molecule antagonists of the CRF-binding protein and CRF-R2 receptor complex.; assay type: functional; details: read-out: IC50_Mean
T1 sequence (Q13324 whole entry): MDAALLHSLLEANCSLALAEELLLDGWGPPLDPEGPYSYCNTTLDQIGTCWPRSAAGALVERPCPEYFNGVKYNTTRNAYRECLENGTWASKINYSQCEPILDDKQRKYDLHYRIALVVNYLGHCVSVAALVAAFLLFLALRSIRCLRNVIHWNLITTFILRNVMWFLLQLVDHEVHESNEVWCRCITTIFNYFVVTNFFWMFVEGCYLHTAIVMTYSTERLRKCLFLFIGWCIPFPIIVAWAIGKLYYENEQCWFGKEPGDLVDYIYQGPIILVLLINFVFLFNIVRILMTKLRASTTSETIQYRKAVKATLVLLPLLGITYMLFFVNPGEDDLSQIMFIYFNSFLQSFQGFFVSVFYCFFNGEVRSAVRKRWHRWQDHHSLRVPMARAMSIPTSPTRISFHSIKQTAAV
T1 sequence (P24387 whole entry): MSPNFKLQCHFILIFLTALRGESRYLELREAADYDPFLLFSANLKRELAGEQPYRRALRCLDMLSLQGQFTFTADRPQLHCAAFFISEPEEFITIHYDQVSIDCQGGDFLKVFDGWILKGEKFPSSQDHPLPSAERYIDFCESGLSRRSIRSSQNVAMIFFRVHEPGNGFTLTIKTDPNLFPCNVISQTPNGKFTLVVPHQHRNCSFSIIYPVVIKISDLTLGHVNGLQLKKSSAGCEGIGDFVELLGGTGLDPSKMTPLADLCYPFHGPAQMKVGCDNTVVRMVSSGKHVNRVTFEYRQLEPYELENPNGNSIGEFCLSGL

[2] = molecular target: T1, Corticotropin-releasing factor receptor 2/Corticotropin-releasing factor-binding protein; assay: activators of CRF receptor 2 with binding protein – uHTS hits, confirmation (AID 602473); assay type: functional; details: read-out: EC50_Mean
Fatty acid synthase [3] = molecular target: T2, Fatty acid synthase (Homo sapiens, UniProt P49327); assay: FAS thioesterase domain inhibitors, dose response, biochemical, kinetic fluorescence intensity (AID 624326); assay type: functional;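 further: rate of fluorescence rise from hydrolysis of a fluorogenic O-methyl fluorescein ester substrate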
T2 sequence (P49327 whole entry, the tested form may be a part): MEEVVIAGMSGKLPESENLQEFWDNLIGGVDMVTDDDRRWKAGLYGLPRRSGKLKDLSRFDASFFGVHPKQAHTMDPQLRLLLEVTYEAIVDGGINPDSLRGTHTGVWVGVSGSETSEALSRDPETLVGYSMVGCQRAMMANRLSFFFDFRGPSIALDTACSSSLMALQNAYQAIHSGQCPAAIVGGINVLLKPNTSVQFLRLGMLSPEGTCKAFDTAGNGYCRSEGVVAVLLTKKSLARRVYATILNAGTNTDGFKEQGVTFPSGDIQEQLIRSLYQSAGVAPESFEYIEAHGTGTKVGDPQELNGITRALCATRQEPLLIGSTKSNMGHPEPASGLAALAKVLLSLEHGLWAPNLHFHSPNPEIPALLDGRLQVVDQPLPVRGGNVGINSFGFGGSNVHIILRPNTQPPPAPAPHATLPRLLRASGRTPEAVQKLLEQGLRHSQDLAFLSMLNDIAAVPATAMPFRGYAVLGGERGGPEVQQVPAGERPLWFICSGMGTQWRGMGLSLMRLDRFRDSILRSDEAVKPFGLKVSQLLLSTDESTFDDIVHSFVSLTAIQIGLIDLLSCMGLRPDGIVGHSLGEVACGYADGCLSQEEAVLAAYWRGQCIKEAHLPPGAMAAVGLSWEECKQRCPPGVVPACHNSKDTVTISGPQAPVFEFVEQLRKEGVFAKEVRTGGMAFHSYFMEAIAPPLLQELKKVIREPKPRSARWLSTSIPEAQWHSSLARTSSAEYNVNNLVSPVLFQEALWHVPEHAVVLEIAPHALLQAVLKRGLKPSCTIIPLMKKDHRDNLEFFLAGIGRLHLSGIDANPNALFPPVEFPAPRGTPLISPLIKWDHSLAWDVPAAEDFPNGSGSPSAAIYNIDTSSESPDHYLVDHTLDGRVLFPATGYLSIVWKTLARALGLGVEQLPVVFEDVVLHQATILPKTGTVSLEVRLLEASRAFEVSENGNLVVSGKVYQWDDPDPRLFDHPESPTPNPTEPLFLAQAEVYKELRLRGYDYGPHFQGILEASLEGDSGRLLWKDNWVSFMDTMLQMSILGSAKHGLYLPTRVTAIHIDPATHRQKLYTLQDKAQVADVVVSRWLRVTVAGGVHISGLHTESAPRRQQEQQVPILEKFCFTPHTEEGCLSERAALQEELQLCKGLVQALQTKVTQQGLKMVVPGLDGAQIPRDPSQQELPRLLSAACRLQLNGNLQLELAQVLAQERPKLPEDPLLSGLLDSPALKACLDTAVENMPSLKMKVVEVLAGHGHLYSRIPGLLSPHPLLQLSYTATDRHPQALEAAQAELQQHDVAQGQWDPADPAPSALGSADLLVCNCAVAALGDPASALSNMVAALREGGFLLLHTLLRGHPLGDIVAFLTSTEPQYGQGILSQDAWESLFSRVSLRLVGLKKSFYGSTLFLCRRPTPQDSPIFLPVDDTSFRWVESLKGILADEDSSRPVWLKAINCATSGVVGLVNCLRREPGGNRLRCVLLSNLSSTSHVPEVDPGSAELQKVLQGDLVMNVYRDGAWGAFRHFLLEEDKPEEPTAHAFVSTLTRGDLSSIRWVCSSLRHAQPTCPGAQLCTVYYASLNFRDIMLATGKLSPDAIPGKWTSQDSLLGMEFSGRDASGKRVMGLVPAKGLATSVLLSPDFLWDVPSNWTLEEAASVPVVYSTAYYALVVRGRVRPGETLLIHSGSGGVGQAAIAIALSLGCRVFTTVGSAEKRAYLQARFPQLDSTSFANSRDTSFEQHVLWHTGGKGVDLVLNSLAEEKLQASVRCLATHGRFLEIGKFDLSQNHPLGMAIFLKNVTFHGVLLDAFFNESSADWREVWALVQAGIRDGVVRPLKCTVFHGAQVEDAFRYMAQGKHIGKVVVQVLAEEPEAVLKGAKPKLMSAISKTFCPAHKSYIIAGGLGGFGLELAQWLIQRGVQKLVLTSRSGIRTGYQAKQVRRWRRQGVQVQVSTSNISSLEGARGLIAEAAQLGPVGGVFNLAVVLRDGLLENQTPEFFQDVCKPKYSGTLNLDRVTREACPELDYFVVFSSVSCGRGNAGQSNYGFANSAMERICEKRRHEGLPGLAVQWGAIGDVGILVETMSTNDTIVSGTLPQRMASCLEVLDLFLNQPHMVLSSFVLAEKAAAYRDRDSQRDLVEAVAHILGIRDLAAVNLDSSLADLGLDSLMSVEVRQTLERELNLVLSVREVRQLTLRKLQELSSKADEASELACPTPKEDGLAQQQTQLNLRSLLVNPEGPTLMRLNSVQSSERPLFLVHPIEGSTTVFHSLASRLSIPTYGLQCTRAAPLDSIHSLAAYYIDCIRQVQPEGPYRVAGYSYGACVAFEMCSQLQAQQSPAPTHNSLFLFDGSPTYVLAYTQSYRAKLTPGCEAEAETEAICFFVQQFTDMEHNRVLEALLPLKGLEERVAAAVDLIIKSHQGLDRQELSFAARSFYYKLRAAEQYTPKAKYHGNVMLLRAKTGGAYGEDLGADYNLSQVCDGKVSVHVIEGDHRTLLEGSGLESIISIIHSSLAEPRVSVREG

Fatty acid synthase [4] = molecular target: T2, Fatty acid synthase; assay: FAS thioesterase domain inhibitors, dose response, biochemical, endpoint fluorescence intensity, uHTS hits (AID 624327); assay type: functional;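 further: fluorescence from hydrolysis of an O-methyl fluorescein acyl ester substrate by the enzyme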
Keap1/Nrf2 = Keap1/Nrf2 (Homo sapiens, UniProt Q14145); assay: Keap1-Nrf2 protein-protein interaction inhibitors, dose response, biochemical, fluorescence polarization, cherry-picked samples (AID 588683)
Chain of Keap1/Nrf2 (Q16236 whole entry): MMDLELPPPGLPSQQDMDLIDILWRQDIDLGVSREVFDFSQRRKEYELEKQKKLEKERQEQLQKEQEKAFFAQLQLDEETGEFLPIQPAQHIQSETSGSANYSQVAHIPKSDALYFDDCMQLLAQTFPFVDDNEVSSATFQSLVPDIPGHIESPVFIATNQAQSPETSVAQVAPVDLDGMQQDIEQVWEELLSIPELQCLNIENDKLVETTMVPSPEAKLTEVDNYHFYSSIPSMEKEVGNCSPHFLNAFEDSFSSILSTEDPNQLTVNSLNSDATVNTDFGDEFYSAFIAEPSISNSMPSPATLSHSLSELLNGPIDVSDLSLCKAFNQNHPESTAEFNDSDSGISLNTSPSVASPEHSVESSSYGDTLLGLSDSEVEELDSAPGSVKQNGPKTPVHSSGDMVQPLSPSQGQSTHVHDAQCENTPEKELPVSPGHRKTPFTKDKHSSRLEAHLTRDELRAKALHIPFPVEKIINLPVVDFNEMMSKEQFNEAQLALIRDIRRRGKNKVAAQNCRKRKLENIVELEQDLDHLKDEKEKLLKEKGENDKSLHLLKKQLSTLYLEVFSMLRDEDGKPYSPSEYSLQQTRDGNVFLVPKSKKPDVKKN
Chain of Keap1/Nrf2 (Q14145 whole entry): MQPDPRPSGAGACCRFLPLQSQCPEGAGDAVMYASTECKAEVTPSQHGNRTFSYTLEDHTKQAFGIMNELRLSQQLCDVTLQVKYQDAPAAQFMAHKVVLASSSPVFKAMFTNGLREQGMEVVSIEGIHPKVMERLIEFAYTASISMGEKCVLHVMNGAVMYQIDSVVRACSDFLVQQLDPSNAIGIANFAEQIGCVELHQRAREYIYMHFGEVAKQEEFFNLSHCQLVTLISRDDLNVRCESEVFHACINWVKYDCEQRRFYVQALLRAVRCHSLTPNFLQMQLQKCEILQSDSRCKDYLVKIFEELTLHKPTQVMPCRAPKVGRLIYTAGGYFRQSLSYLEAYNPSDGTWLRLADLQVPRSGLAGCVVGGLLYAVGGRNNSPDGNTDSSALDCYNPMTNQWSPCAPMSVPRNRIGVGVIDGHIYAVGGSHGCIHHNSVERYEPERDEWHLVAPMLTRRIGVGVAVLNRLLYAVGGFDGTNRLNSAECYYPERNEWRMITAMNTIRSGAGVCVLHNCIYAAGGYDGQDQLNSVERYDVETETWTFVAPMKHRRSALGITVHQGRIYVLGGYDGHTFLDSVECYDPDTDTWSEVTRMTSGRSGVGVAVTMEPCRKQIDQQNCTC

[5] = molecular target: T3, Tyrosine-protein phosphatase non-receptor type 7 (Homo sapiens, UniProt P35236); assay type: functional
T3 sequence (P35236 whole entry): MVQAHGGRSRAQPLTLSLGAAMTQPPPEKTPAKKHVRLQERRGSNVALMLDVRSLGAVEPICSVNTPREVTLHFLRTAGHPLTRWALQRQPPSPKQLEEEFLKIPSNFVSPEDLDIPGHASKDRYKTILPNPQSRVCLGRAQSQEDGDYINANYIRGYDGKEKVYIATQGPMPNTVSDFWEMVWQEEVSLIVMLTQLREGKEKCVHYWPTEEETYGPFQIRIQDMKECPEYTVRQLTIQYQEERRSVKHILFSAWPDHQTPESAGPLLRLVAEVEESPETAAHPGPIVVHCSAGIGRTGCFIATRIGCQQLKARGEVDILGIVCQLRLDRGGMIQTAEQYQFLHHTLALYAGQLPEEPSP

[6] = molecular target: T4, Apoptotic protease-activating factor 1 (Homo sapiens, UniProt O14727); assay: activation of Apaf-1 mediated apoptosis – fluorescent, uHTS hits, dose response (AID 588554); assay type: functional
T4 sequence (O14727 whole entry): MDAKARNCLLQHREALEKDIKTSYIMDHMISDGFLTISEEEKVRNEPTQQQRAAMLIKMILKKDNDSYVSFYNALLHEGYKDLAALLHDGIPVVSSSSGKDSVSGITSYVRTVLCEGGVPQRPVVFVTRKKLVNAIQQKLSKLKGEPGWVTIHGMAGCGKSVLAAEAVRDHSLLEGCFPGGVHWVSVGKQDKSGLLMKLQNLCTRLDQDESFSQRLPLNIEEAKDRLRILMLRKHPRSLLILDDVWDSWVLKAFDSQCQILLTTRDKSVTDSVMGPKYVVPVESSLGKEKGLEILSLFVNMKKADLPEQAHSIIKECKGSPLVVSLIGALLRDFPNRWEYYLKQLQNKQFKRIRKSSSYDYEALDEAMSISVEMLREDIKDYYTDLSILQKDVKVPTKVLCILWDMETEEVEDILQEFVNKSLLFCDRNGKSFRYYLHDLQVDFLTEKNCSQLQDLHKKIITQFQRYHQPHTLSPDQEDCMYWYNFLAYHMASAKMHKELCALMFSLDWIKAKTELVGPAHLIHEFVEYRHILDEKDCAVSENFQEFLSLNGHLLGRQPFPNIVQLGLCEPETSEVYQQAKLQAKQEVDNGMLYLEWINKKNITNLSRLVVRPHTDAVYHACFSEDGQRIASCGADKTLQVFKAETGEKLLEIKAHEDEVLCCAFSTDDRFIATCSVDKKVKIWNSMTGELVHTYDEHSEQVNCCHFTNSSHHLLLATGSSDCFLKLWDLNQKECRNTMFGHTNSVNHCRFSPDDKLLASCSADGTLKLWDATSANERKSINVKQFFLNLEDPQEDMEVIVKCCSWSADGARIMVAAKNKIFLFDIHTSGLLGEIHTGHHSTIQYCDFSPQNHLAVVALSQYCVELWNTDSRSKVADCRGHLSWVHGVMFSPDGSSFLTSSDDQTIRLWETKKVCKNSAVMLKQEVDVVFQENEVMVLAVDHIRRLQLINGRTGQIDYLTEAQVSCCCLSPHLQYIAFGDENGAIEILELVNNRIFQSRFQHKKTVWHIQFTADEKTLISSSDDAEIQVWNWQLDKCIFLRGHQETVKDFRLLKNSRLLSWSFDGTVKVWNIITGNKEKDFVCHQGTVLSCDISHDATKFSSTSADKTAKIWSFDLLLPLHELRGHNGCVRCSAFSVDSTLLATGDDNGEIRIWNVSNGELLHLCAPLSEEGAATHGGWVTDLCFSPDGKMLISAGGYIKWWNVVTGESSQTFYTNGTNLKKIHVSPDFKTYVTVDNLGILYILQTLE

[7] = molecular target: T5, Tyrosine-protein phosphatase non-receptor type 22 (Homo sapiens, UniProt Q9Y2R2); assay: SAR LYP1 Fluorescent Assay using OMFP substrate for In Vitro dose response studies - Set 2. [Related pubchem assays (depositor defined):AID1779, AID1784, AID2140, AID449726, AID488869]; assay type: functional
T5 sequence (Q9Y2R2 whole entry): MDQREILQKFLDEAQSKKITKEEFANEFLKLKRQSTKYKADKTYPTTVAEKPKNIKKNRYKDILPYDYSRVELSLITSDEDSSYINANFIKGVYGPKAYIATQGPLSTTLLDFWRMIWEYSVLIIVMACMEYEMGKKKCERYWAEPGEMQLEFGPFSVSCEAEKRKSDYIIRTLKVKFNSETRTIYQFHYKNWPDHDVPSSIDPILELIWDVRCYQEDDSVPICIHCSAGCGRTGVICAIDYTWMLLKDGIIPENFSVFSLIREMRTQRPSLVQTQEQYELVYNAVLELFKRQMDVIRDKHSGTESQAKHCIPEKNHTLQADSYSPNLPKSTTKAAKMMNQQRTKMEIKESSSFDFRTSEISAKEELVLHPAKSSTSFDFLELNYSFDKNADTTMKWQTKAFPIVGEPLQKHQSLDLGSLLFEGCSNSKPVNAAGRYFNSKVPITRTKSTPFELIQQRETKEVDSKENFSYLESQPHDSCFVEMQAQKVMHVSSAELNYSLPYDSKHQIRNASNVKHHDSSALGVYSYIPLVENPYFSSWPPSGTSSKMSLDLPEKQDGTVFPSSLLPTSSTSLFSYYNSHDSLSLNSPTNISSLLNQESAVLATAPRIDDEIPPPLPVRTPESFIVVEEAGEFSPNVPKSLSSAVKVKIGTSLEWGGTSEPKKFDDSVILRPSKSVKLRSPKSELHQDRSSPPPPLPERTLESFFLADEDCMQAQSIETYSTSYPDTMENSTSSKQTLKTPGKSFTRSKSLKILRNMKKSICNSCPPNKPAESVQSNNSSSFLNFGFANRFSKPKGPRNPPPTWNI

[8] = molecular target: T5, Tyrosine-protein phosphatase non-receptor type 22; assay: SAR LYP1 Fluorescent Assay using pCAP substrate for In Vitro dose response studies - Set 2. [Related pubchem assays (depositor defined):AID1779, AID1784, AID2135, AID449727]; assay type: functional
[9] = molecular target: T5, Tyrosine-protein phosphatase non-receptor type 22; assay type: functional
[10] = molecular target: T3, Tyrosine-protein phosphatase non-receptor type 7; assay: HePTP (PTPN7) phosphatase inhibitor potency, SAR follow-up, biochemical, set 2 (AID 449736); assay type: functional
[11] = molecular target: T6, Heat shock factor protein 1 (Mus musculus, UniProt P38532); assay: HSF1 potentiators in luciferase reporter cells, confirmation, cell-based, NIH3T3, luminescence, dose retest (AID 435004); assay type: functional;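 further: stress induced by proteasome inhibitor MG132 added 30 min after compound; luciferase reporter driven by HSF1 response element in NIH3T3 cells; actives raise luminescence as potentiators of the MG132 stress response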
T6 sequence (P38532 whole entry): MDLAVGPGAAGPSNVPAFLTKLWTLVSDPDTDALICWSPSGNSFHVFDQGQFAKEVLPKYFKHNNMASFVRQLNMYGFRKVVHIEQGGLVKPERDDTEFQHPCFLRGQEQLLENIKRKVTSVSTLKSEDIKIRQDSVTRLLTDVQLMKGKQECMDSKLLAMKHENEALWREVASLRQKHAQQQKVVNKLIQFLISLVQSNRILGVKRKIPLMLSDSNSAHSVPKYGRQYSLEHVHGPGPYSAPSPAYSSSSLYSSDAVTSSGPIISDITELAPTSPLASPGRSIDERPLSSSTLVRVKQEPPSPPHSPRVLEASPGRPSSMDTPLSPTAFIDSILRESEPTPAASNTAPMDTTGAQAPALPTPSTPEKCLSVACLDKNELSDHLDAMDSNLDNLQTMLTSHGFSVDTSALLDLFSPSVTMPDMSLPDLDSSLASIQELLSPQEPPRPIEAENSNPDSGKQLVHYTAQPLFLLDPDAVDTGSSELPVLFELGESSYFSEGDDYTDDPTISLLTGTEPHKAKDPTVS

[12] = molecular target: T5, Tyrosine-protein phosphatase non-receptor type 22; assay: PubChem AID 2140
[13] = molecular target: Tyrosine-protein phosphatase non-receptor type 12 (Homo sapiens, UniProt Q05209); assay: SAR Selectivity Analysis of small molecule inhibitors of PEST using pCAP in a fluorescence assay. [Related pubchem assays (depositor defined):AID1779, AID1784, AID2135]; assay type: functional
Chain of Tyrosine-protein phosphatase non-receptor type 12 (Q05209 whole entry): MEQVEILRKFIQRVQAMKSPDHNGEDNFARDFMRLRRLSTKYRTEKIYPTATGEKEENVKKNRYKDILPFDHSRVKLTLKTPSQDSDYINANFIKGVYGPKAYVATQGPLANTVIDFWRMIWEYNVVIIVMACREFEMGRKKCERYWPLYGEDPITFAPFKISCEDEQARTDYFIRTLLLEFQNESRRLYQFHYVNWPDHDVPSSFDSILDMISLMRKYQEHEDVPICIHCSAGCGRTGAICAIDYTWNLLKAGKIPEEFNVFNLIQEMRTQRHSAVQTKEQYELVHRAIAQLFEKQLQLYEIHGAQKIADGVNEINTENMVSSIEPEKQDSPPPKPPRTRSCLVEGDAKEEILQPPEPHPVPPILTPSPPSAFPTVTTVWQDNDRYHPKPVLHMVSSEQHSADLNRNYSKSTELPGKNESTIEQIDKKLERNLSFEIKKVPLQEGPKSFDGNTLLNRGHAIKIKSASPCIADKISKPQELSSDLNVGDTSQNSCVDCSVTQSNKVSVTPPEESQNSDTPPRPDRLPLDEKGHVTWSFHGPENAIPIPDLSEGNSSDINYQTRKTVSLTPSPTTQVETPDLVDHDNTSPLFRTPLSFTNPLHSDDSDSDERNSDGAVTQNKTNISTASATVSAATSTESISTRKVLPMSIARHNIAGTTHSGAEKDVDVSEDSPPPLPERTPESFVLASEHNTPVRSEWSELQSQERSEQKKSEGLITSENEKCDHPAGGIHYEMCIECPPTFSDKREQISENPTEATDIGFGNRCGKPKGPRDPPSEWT

[14] = molecular target: T5, Tyrosine-protein phosphatase non-receptor type 22; assay: PubChem AID 2135
[15] = molecular target: T5, Tyrosine-protein phosphatase non-receptor type 22; assay: SAR LYP1 Fluorescent Assay using OMFP substrate for In Vitro dose response studies - Set 3. [Related pubchem assays (depositor defined):AID1779, AID1784, AID2140, AID2686]; assay type: functional
[16] = molecular target: T5, Tyrosine-protein phosphatase non-receptor type 22; assay: inhibitors of LYP phosphatase, biochemical, fluorescence intensity, uHTS (AID 1779)
[17] = molecular target: T5, Tyrosine-protein phosphatase non-receptor type 22; assay type: functional; remark: listed apart in the source
Cysteine protease ATG4B = Cysteine protease ATG4B (Homo sapiens, UniProt Q9Y4P1); assay: ATG4B protease inhibitors, dose response, biochemical, fluorescence, set 2 (AID 588584); assay type: functional
Chain of Cysteine protease ATG4B (Q9Y4P1 whole entry): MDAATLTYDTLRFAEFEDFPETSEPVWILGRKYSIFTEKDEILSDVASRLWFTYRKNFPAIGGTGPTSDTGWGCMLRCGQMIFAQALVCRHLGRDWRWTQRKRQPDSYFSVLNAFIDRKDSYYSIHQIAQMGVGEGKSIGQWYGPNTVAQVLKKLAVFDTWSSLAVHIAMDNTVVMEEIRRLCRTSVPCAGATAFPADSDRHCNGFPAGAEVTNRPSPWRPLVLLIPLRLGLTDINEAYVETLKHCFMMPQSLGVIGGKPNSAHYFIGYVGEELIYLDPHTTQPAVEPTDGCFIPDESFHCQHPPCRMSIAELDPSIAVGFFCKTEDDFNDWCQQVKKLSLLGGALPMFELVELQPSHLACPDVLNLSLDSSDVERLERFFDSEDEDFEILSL

Phospholipase A2 = Phospholipase A2 (Homo sapiens, UniProt P04054); assay: PLA2 enzyme inhibitors, dose response, counter-screen for ATG4B inhibitor project, biochemical, set 2 (AID 588586); assay type: functional
Chain of Phospholipase A2 (P04054 whole entry): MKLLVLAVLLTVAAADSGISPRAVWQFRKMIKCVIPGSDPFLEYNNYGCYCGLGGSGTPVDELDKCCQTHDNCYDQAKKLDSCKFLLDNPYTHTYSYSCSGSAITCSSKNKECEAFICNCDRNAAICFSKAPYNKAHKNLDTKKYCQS

[18] = Luminescence Cell-Based Dose Retest to Confirm Inhibitors of Cancer Stem Cells. [Related pubchem assays (depositor defined):AID2717, AID2721]; assay type: functional; details: Homo sapiens
Escherichia coli = assay: microbe, parasite or virus in culture

COc1ccc(C(C)=NNc2ccc([N+](=O)[O-])cc2S(=O)(=O)Nc2ccccc2C(=O)O)c(OC)c1
active: IC50 [1] 0.754 µM | EC50 [2] 38.6 µM | IC50 (Fatty acid synthase [3]) 9.07 µM | IC50 (Fatty acid synthase [4]) 13.3 µM | AC50 (Keap1/Nrf2) 25.7 µM

N#C/C(=C\c1ccc(OCc2ccc(Cl)cc2)cc1)C(=O)Nc1cccc(C(=O)O)c1
active: IC50 [5] 14.6 µM | EC50 [6] 20.8 µM | IC50 [7] 3.77 µM | IC50 [8] 6.54 µM | IC50 [9] 6.42 µM | IC50 [10] 0.651 µM | EC50 [11] 10.9 µM | IC50 [12] 34.2 µM | IC50 [13] 2.91 µM | IC50 [14] 4.96 µM | IC50 [15] 4.74 µM | IC50 [16] 8.62 µM | IC50 [17] 6.86 µM

COc1ccc(OC)c(NC(=O)c2nnn(Cc3ccccc3C)c2N)c1
active: IC50 (Cysteine protease ATG4B) 19.9 µM | IC50 (Phospholipase A2) 13.4 µM | AC50 [18] 2.47 µM

CCn1c(=O)c2c3c(sc2n2c(S)nnc12)CCC3
active: AC50 (Escherichia coli) 24.2 µM
